The results in this text go back to patent US20240090503A1, “FUNGICIDAL OXADIAZOLES AND THEIR MIXTURES” (FMC CORPORATION, priority 2020, published 2024).

The test system of series [1] is Phakopsora pachyrhizi (the causal agent of Asian soybean rust). The series is described as follows: Test A: preventive spray on soybean seedlings, Asian soybean rust, visual disease rating. The conditions noted are these: Phakopsora pachyrhizi, 216 h, soybean seedlings, 100 = 100% disease control, 0 = no control; for pest or weed control at 10 µg/mL: test suspension 10 ppm, read-out: Test A disease control rating; for pest or weed control at 10 ppm: 10 ppm test suspension. Type of series: in vivo. Summed up:
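Compound in acetone/water (50/50) with 250 ppm PEG400 sprayed to run-off on soybean seedlings; inoculated next day with Phakopsora pachyrhizi spores. Held 24 h at 22° C in saturated atmosphere, then 8 days in a 22° C growth chamber before visual rating as % disease control relative to controls.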

For series [2], the system named is Zymoseptoria tritici (the causal agent of wheat leaf blotch). In words: Test B: preventive spray on wheat seedlings, wheat leaf blotch, visual disease rating. Conditions: Zymoseptoria tritici, 456 h, wheat seedlings; for pest or weed control at 250 µg/mL: test suspension 250 ppm; for pest or weed control at 250 ppm: 250 ppm test suspension, 100 = 100% disease control. Type of series: in vivo. An outline of the steps: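 This is a preventive test: spray application preceded Zymoseptoria tritici spore inoculation by one day. Test suspensions were in acetone/water with 250 ppm PEG400 surfactant, at the listed ppm rate. After 48 h saturated humidity at 24° C and 17 days at 20° C, visual ratings scored control from 0 to 100%.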

For series [3], the system named is Puccinia recondita f. sp. tritici (the causal agent of wheat leaf rust). The series is described as follows: Test C: preventive spray on wheat seedlings, wheat leaf rust, visual disease rating. Type of series: in vivo. Conditions: Puccinia recondita, 168 h, wheat seedlings; for pest or weed control at 10 µg/mL: test suspension 10 ppm, read-out: Test C disease control rating; for pest or weed control at 10 ppm: 10 ppm test suspension. An outline of the steps: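 Wheat seedlings sprayed to run-off with compound in acetone/water (50/50) with 250 ppm PEG400, then inoculated with spores the following day. After 24 h saturated humidity at 20° C. and 6 days in growth chamber at 20° C., disease rated visually as % control relative to untreated controls.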

For series [4], the system named is Phakopsora pachyrhizi (the causal agent of Asian soybean rust). The series is described as follows: Test E: compounds alone and mixtures sprayed on soybean seedlings, Asian soybean rust, observed and Colby-expected disease control. The class given is in vivo. The conditions noted are these: Phakopsora pachyrhizi. An excerpt: The general protocol for preparing test compositions for TEST E was as follows: Compound 316, Compound 376, Compound 225, Compound 229, Compound 257, Compound 394, Compound 506, Compound 507, Compound 508, Compound 509, Compound 511, Compound 512, methyl N-[[5-[1-[2,6-difluoro-4-(1-methylethyl)phenyl]-1H-pyrazol-3-yl]-2-methylphenyl]methyl]carbamate (b54.11a), methyl N-[[5-[l-(4-cyclopropyl-2,6-difluorophenyl)-1H-pyrazol-3-yl]-2-methylphenyl]methyl]carbamate (b54.11d), ethyl 1-[[4-[[(1Z)-2-ethoxy-3,3,3-trifluoro-1-propen-1-yl]oxy]phenyl]methyl]-1H-pyrazole-4-carboxylate (b54.12a), ethyl 1-[[4-[[2-(trifluoromethyl)-1,3-dioxolan-2-yl]methoxy]phenyl]methyl]-1H-pyrazole-4-carboxylate (b54.13a), azoxystrobin, benzovindiflupyr, bixafen, chlorothalonil, cyproconazole, epoxiconazole, fenpropidin, fenpropimorph, fluindapyr, flutriafol, fluxapyroxad, inpyrfluxam, metominostrobin, picoxystrobin, prothioconazole, pydiflumetofen, pyraclostrobin, tebuconazole and trifloxystrobin were obtained as unformulated, technical-grade materials. Copper hydroxide and mancozeb was obtained as a formulated product marketed under the trademarks KOCIDE 3000 and MANZATE, respectively. Unformulated materials were first dissolved in acetone and then suspended at the desired concentration (in ppm) in acetone and purified water (50/50 mixture by volume) containing 250 ppm of the surfactant Trem® 014 (polyhydric alcohol esters). Formulated materials were dispersed in sufficient water to give the desired concentration, and neither organic solvent nor surfactant was added to the suspension. The resulting test mixtures were then used in TEST E. The tests were run on four individual plants and the results reported as the mean average of the four plants.
The presence of a synergistic effect between two active ingredients can be established with the aid of the Colby equation (see Colby, S. R. “Calculating Synergistic and Antagonistic Responses of Herbicide Combinations”, Weeds, (1967), 15, 20-22):
Using the method of Colby, the presence of a synergistic interaction between two active ingredients is established by first calculating the predicted activity, p, of the mixture based on activities of the two components applied alone. If p is lower than the experimentally established effect, synergism has occurred. In the equation above, A is the fungicidal activity in percentage control of one component applied alone at rate x. The B term is the fungicidal activity in percentage control of the second component applied at rate y. The equation estimates p, the expected fungicidal activity of the mixture of A at rate x with B at rate y if their effects are strictly additive and no interaction has occurred.
The test mixture was sprayed to the point of run-off on soybean seedlings. The following day the seedlings were inoculated with a spore suspension of Phakopsora pachyrhizi (the causal agent of Asian soybean rust) and incubated in a saturated atmosphere at 22° C. for 24 h and then moved to a growth chamber at 22° C. for 8 days, after which time visual disease ratings were made.
Results for Test E are given below in Tables A-1 through K-2. Each table corresponds to a set of evaluations performed together at the same time. In each table, a rating of 100 indicates 100% disease control and a rating of 0 indicates no disease control (relative to the controls). Columns labeled “Obsd” indicate the average of results observed from test run on four individual plants. Columns labeled “Exp” indicate the expected value for each treatment mixture using the Colby equation, as described above.

Setting [5] is: 100 = 100% disease control, 0 = no control.

Where two headings read alike, the source gives them in different places.

For `COCCNC(=O)c1coc(Cc2ccc(-c3noc(C(F)(F)F)n3)cc2)n1` [Compound 257, N-(2-methoxyethyl)-2-[[4-[5-(trifluoromethyl)-1,2,4-oxadiazol-3-yl]phenyl]methyl]-4-oxazolecarboxamide], the pest or weed control at 10 µg/mL in series [1] and in series [3] was 100% in each case. In addition, the pest or weed control at 250 µg/mL in series [2] amounted to 99%. Further, the pest or weed control at 0.914 ppm in series [4] (applied alone, 0.914 ppm, read-out: Test E Obsd) was determined as 27%.
What is called melting point is the temperature of the solid-liquid transition. Turning to `O=C(NCCn1cccn1)c1coc(Cc2ccc(-c3noc(C(F)(F)F)n3)cc2)n1` [Compound 264, N-[2-(1H-pyrazol-1-yl)ethyl]-2-[[4-[5-(trifluoromethyl)-1,2,4-oxadiazol-3-yl]phenyl]methyl]-4-oxazolecarboxamide], the melting point was in the range of 125 to 126 °C. For the same molecule, the pest or weed control at 10 µg/mL in series [1] was found to be 100%. The pest or weed control at 250 µg/mL in series [2] came out at 99%. Besides, the pest or weed control at 10 µg/mL in series [3] came to 99%.
With `O=C(NCCC(F)(F)F)c1coc(Cc2ccc(-c3noc(C(F)(F)F)n3)cc2)n1` [Compound 330, 2-[[4-[5-(trifluoromethyl)-1,2,4-oxadiazol-3-yl]phenyl]methyl]-N-(3,3,3-trifluoropropyl)-4-oxazolecarboxamide], the melting point fell in the range of 104 to 105 °C. Moreover, the pest or weed control at 10 µg/mL in series [1] is 100%. Moreover, the pest or weed control at 250 µg/mL in series [2] was 96%. Besides, the pest or weed control at 10 µg/mL in series [3] was found to be 100%.
With `CCOC(=O)c1cnn(COc2ccc(-c3noc(C(F)(F)F)n3)cc2)c1` [Compound 376, ethyl 1-[[4-[5-(trifluoromethyl)-1,2,4-oxadiazol-3-yl]phenoxy]methyl]-1H-pyrazole-4-carboxylate], the pest or weed control at 10 µg/mL in series [1] worked out at 100%; in series [3], 68%. In series [2], the pest or weed control at 250 µg/mL came out at 49%. For the same molecule, the pest or weed control at 0.753 ppm was determined as 53% in series [4] (Compound 376 alone, 0.753 ppm, read-out: Test E Obsd); 70% in series [4] (Table A-2, Compound 376 0.753 ppm alone, read-out: Test E Obsd (disease control rating)); 15% in series [4] (Table B-2, Compound 376 0.753 ppm alone, read-out: Test E Obsd (disease control rating)); 54% in series [4] (Table C-2, Compound 376 0.753 ppm alone, read-out: Test E Obsd (disease control rating)); 67% in series [4] (Table D-2, Compound 376 0.753 ppm alone, read-out: Test E Obsd (disease control rating)); 81% in series [4] (Table E-2, Compound 376 0.753 ppm alone, read-out: Test E Obsd (disease control rating)). Besides, the pest or weed control at 0.753 ppm in series [4] (Table F-2, Compound 376 0.753 ppm alone, read-out: Test E Obsd (disease control rating)) amounted to 68%; in series [4] (Table G-2, Compound 376 0.753 ppm alone, read-out: Test E Obsd (disease control rating)) it was 52%; in series [4] (Table H-2, Compound 376 0.753 ppm alone, read-out: Test E Obsd (disease control rating)), 62%. In addition, the pest or weed control at 1.228 ppm in series [4] (Compound 376 alone, 1.228 ppm, read-out: Test E Obsd) worked out at 78%; in series [4] (Table A-2, Compound 376 1.228 ppm alone, read-out: Test E Obsd (disease control rating)) it was 66%; in series [4] (Table B-2, Compound 376 1.228 ppm alone, read-out: Test E Obsd (disease control rating)) it was 21%; in series [4] (Table C-2, Compound 376 1.228 ppm alone, read-out: Test E Obsd (disease control rating)), 71%; in series [4] (Table D-2, Compound 376 1.228 ppm alone, read-out: Test E Obsd (disease control rating)), 68%; in series [4] (Table E-2, Compound 376 1.228 ppm alone, read-out: Test E Obsd (disease control rating)), 67%. The pest or weed control at 1.228 ppm in series [4] (Table F-2, Compound 376 1.228 ppm alone, read-out: Test E Obsd (disease control rating)) is 77%; in series [4] (Table G-2, Compound 376 1.228 ppm alone, read-out: Test E Obsd (disease control rating)) it was 37%; in series [4] (Table H-2, Compound 376 1.228 ppm alone, read-out: Test E Obsd (disease control rating)) it was 81%.
In the case of `O=C(NCC(F)F)c1csc(Cc2ccc(-c3noc(C(F)(F)F)n3)cc2)n1` [Compound 505, N-(2,2-difluoroethyl)-2-[[4-[5-(trifluoromethyl)-1,2,4-oxadiazol-3-yl]phenyl]methyl]-4-thiazolecarboxamide], the melting point fell in the range of 83 to 92 °C. Also, the pest or weed control at 10 ppm in series [1] came out at 100%. Also, the pest or weed control at 250 ppm in series [2] worked out at 100%. Besides, in series [3] (setting [5]), the pest or weed control at 10 ppm worked out at 100%.
Molecule `O=C(NCC(F)(F)F)c1noc(Cc2ccc(-c3noc(C(F)(F)F)n3)cc2)n1` [Compound 506, N-(2,2,2-trifluoroethyl)-5-[[4-[5-(trifluoromethyl)-1,2,4-oxadiazol-3-yl]phenyl]methyl]-1,2,4-oxadiazole-3-carboxamide] had a melting point of 116 to 120 °C. Besides, the pest or weed control at 250 ppm in series [1] (250 ppm test suspension) worked out at 100%. In series [2], the pest or weed control at 250 ppm amounted to 49%. In addition, in series [3] (250 ppm test suspension, 100 = 100% disease control, 0 = no control), the pest or weed control at 250 ppm is 100%.
The molecule `N#CCn1ccc(Cc2ccc(-c3noc(C(F)(F)F)n3)cc2)n1` [Compound 507, 3-[4-[(1-cyanomethyl-1H-pyrazol-3-yl)methyl]phenyl]-5-(trifluoromethyl)-1,2,4-oxadiazole] registered a melting point of 111 to 114 °C. In addition, the pest or weed control at 10 ppm in series [1] is 100%. For the same molecule, in series [3] (setting [5]), the pest or weed control at 10 ppm came to 98%. In addition, the pest or weed control at 1.823 ppm in series [4] (applied alone, 1.823 ppm, read-out: Test E Obsd) was found to be 74%.
The molecule `N#CCc1cc(Cc2ccc(-c3noc(C(F)(F)F)n3)cc2)on1` [Compound 510, 5-[[4-[5-(trifluoromethyl)-1,2,4-oxadiazol-3-yl]phenyl]methyl]-3-isoxazoleacetonitrile] had a melting point of 101 to 104 °C. In addition, in series [1], the pest or weed control at 10 ppm was found to be 100%. In series [3] (setting [5]), the pest or weed control at 10 ppm amounted to 84%.
